Source: patent publication US9115093B2, “Substituted bicyclic dihydropyrimidinones and their use as inhibitors of neutrophil elastase activity” (Boehringer Ingelheim International GmbH, priority 2013, dated 2015)
≈ marks a conversion by molar mass, not a printed value.

Key:
[1] = Drug transport across human CACO-2 cells; assay type: in vitro ADME
Text: Assay for Determination of Drug Transport Across Human CACO-2 Cells
The assay provides information on the potential of a compound to pass the cell membrane, on the extent of oral absorption as well as on whether the compound is actively transported by uptake and/or efflux transporters. For the measurement of permeability across polarized, confluent human cancer colon carcinoma cells 2 (Caco-2) cell monolayers grown on permeable filter supports are used as the in vitro absorption model. Apparent permeability coefficients (PE) of the compounds across the Caco-2 monolayers are measured (pH 7.2, 37° C.) in apical-to-basal (AB) (absorptive) and basal-to-apical (BA) (secretory) transport direction. AB permeability (PEAB) represents drug absorption from the intestine into the blood and BA permeability (PEBA) drug secretion from the blood back into the intestine via both passive permeability as well as active transport mechanisms mediated by efflux and uptake transporters that are expressed on the Caco-2 cells. The compounds are assigned to permeability/absorption classes by comparison of the AB permeabilities with the AB permeabilities of reference compounds with known in vitro permeability and oral absorption in the human. Identical or similar permeabilities in both transport directions indicate passive permeation, vectorial permeability points to additional active transport mechanisms. […] Active transport is concentration-dependently saturable.
Caco-2 cells (1−2*10^5 cells/cm^2 area) are seeded on filter inserts (Costar transwell polycarbonate or PET filters, […] pore size) and cultured (DMEM) for 10 to 25 days. Compounds are dissolved in appropriate solvent (like DMSO, 1-20 mM stock solutions). Stock solutions are diluted with HTP-4 buffer (128.13 mM NaCl, 5.36 mM KCl, 1 mM MgSO4, 1.8 mM CaCl2, 4.17 mM NaHCO3, 1.19 mM Na2HPO4×7H2O, 0.41 mM NaH2PO4×H2O, 15 mM HEPES, 20 mM glucose, pH 7.2) to prepare the transport solutions (typically […] compound, final DMSO <=0.5%). The transport solution (TL) is applied to the apical or basolateral donor side for measuring A-B or B-A permeability (3 filter replicates), respectively. The receiver side contains HTP-4 buffer supplemented with 2% BSA. Samples are collected at the start and end of experiment from the donor and at various time intervals for up to 2 hours also from the receiver side for concentration measurement by LC-MS/MS or scintillation counting. Sampled receiver volumes are is replaced with fresh receiver solution.
The apparent permeability coefficients (PEAB and PEBA) and efflux ratios (PEBA/PEAB) of selected compounds in the Caco-2 drug transport assay described above are listed in Table 17.

Aqueous solubility = assay type: physicochemical; conditions: McIlvaine buffer with 2.5% DMSO; McIlvaine buffer pH 6.8, 2.5% DMSO, 24 h shaking
Description: Assay for Determination of Aqueous Solubility
The aqueous solubility of a compound is determined by comparing the amount dissolved in aqueous buffer (containing 2.5% DMSO) to the amount dissolved in an acetonitrile/water (1/1) solution. Starting from a 10 mM DMSO stock solution, aliquots are diluted with acetonitrile/water (1/1) and Mcllvaine buffer pH 6.8, respectively. After 24 h of shaking, the solutions or suspensions are filtered and analyzed by LC-UV. The amount dissolved in buffer is compared to the amount dissolved in the acetonitrile/water (1/1) solution. Solubility is measured from 0.001 to 0.125 mg/ml at a DMSO concentration of 2.5%. If more than 90% of the compound is dissolved in buffer, the value is marked with “>”.

neutrophil elastase [2] = molecular target: T1, neutrophil elastase (Homo sapiens, UniProt P08246); experiment: Human Neutrophil Elastase Assay; assay type: biochemical; design: purchased Calbiochem 324681; conditions: substrate MeOSuc-Ala-Ala-Pro-Val-AMC, pH 7.5, room temperature
T1 sequence (P08246 30-247 limits assumed): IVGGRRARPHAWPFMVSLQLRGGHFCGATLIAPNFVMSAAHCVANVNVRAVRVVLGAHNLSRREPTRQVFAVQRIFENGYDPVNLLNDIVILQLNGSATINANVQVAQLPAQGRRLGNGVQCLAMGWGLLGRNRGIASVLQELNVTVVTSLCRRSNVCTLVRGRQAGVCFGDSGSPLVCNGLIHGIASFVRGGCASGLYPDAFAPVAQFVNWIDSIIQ
Method in brief: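 Readout: AMC fluorescence (ex 380, em 460 nm) after 60 min room-temperature reaction with 250 nM MeOSuc-AAPV-AMC, following 15 min compound–enzyme preincubation. Buffer: Tris/NaCl pH 7.5, 0.01% BSA.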

neutrophil elastase [3] = molecular target: T1, neutrophil elastase; experiment: Neutrophil elastase inhibitory activity in human plasma; assay type: biochemical; design: The stimulated blood is centrifuged to generate the neutrophil elastase enriched plasma; from tissue; host or cells: plasma from zymosan-stimulated citrated whole blood of healthy human donors; conditions: neutrophil elastase enriched human plasma (zymosan-stimulated blood), substrate MeOSuc-Ala-Ala-Pro-Val-AMC
Description: Assay for the Determination of Neutrophil Elastase Inhibitory Activity in Human Plasma
Citrated blood from human healthy donors is mixed with zymosan suspension and incubated at room temperature. This leads to the stimulation of neutrophils and the release of neutrophil elastase into the plasma. The stimulated blood is centrifuged to generate the neutrophil elastase enriched plasma.
Preparation of Zymosan Working Solution:
• single 45 ml blood sample is taken into a 50 ml tube containing citrate (3.13%, 5 mL) and the tube is gently inverted 4 times. • Immediately after blood sampling, zymosan working solution (5 mL) is added. • After the addition of zymosan working solution, the tubes are capped, mixed gently and incubated at 22° C. for 15 min on a shaker at 20 rpm. • Make 10 ml aliquots after the incubation time. • Centrifuge the 15 ml tubes at 800 g for […] at 4° C. in a Jouan centrifuge. • Harvest the plasma and make 1-5 ml aliquots. • Store the plasma at −80° C.
Various concentrations of the neutrophil elastase inhibitor are incubated with plasma. Subsequently, the enzyme activity is measured using the fluorogenic substrate MeOSuc-Ala-Ala-Pro-Val-AMC (Bachem Cat. No. 1-1270, substrate concentration: 250 μM, pH 7.5, 25 mM TRIS buffer, 250 mM NaCl) in analogous fashion as described for the human neutrophil assay. A dose response curve is generated to calculate the EC50 of the inhibitor. The analysis of the data is performed by the calculation of the percentage of fluorescence in the presence of the test compound compared to the fluorescence of the vehicle control after subtracting the background fluorescence: An inhibitor of the neutrophil elastase enzyme will give values between 100% control (no inhibition) and 0% control (complete inhibition). The human plasma shift of selected compounds can be calculated using the following equation: Human plasma shift=(EC50 in human plasma assay)/(IC50 in human neutrophil elastase assay) The EC50 values of selected compounds in the human plasma assay described above are listed in Table 14.

[4] = Metabolic stability with human liver microsomes; assay type: in vitro ADME; conditions: pooled human liver microsomes, 37° C., 1 mg/ml protein, NADPH
Description: Assay for the Determination of Metabolic Stability with Human Liver Microsomes
The metabolic degradation of the test compound is assayed at 37° C. with pooled human liver microsomes. The final incubation volume of […] per time point contains TRIS buffer pH 7.6 (0.1 M), magnesium chloride (5 mM), microsomal protein (1 mg/ml) and the test compound at a final concentration of […]. Following a short preincubation period at 37° C., the reactions are initiated by addition of beta-nicotinamide adenine dinucleotide phosphate, reduced form (NADPH, 1 mM) and terminated by transfering an aliquot into acetonitrile after different time points. Additionally, the NADPH-independent degradation is monitored in incubations without NADPH, terminated at the last time point. The rol remaining test compound after NADPH independent incubation is reflected by the parameter c(control) (metabolic stability). The quenched incubations are pelleted by centrifugation (10′000 g, 5 min) An aliquot of the supernatant is assayed by LC-MS/MS for the amount of parent compound.
The half-life (t1/2 INVITRO) is determined by the slope of the semilogarithmic plot of the concentration-time profile. The intrinsic clearance (CL_[…]) is calculated by considering the amount of protein in the incubation: CL_[…][μl/min/mg protein]=(ln 2/(half-life [min]*protein content [mg/ml]))*1′000.
The half-life (t1/2 INVITRO) values of selected compounds in the metabolic stability assay described above are listed in Table 15.

[5] = Metabolic stability with human hepatocytes; assay type: in vitro ADME; conditions: human hepatocyte suspension, 1 μM, scaled with well stirred model
Description: Assay for the Determination of Metabolic Stability with Human Hepatocytes
The metabolic degradation of the test compound is assayed in a human hepatocyte suspension. Human hepatocytes (typically cryopreserved) are incubated in an appropriate buffer system (e.g. Dulbecco's modified eagle medium plus 3.5 μg glucagon/500 mL, 2.5 mg insulin/500 mL and 3.75 mg/500 mL hydrocortison) containing 5% species serum. Following a (typically) […] preincubation in an incubator (37° C., 10% CO2), 5 μl of test compound solution (80 μM; from 2 mM stock solution in DMSO diluted 1:25 with medium) are added into 395 μl hepatocyte suspension (cell density in the range 0.25-5*10^6 cells/mL, typically 1*10^6 cells/mL; final concentration of test compound 1 μM, final DMSO concentration […]). The cells are incubated for six hours (incubator, orbital shaker) and samples (25 μl) are taken at 0, 0.5, 1, 2, 4 and 6 hours. Samples are transferred into acetonitrile and pelleted by centrifugation (5 min). The supernatant is transferred to a new 96-deepwell plate, evaporated under nitrogen and resuspended. The decline of parent compound is analyzed by LC-MS/MS.
The intrinsic clearance CL_[…] is calculated as follows: CL_[…]=Dose/AUC=(C0/CD)/(AUD+clast/k)*1′000/60 (C0: initial concentration in the incubation [μM], CD: cell density of vital cells [10^6 cells/mL], AUD: area under the data [μM*h], clast: concentration of last data point [μM], k: slope of the regression line for parent decline [h^−1])
The calculated in vitro hepatic intrinsic clearance can be scaled up to the intrinsic in vivo hepatic clearance and used to predict hepatic in vivo blood clearance (CL) by the use of a is liver model (well stirred model): CL_[…]_INVIVO [ml/min/kg]=(CL_[…] [μL/min/10^6 cells]* hepatocellularity[10^6 cells/g liver]*liver factor[g/kg bodyweight])/1′000 CL[ml/min/kg]=CL_[…]_INVIVO [ml/min/kg]*hepatic blood flow [ml/min/kg]/(CL_[…]_INVIVO [ml/min/kg]+hepatic blood flow [ml/min/kg]) Qh[%]=CL[ml/min/kg]/hepatic blood flow[ml/min/kg]) (Hepatocellularity, human: 120*10^6 cells/g liver; lver factor, human: 25.7 g/kg bodyweight; blood flow, human: 21 ml/(min*kg))
The predicted human hepatic in vivo blood clearance (CL) of selected compounds in the metabolic stability assay described above are listed in Table 16.

Papp A→B at 10 nM ([1]; Caco-2 monolayers, apical-to-basal, pH 7.2, 37° C., read-out: PEAB) [×10⁻⁶ cm/s]	Papp B→A at 10 nM ([1]; Caco-2 monolayers, basal-to-apical, pH 7.2, 37° C., read-out: PEBA) [×10⁻⁶ cm/s]	efflux ratio at 10 nM ([1]; pH 7.2, Caco-2, PEBA/PEAB)	solubility at 24 h (Aqueous solubility) [µg/mL]	IC50 (neutrophil elastase [2]) [nM]	EC50 (neutrophil elastase [3]) [nM]	t1/2 INVITRO [4] [h]	CL (predicted human hepatic in vivo blood clearance) [5] [mL/min/kg]	Compound
16.4	80.7	4.9	98 (≈ 186 µM)	1.4	6	–	–	CN(C)CCNC(=O)N1C(=O)N(c2cccc(C(F)(F)F)c2)C2=C(C(=O)CCC2)C1c1ccc(C#N)cc1 (centres unmarked) [Example 39.8]
–	–	–	–	–	–	>2.17	0	CC(C)(O)CNC(=O)N1C(=O)N(c2cccc(C(F)(F)F)c2)C2=C(C(=O)CCC2)C1c1ccc(C#N)cc1 (centres unmarked) [Example 70.9]
–	–	–	–	–	–	>2.17	3	CS(=O)(=O)c1cc(C#N)ccc1C1C2=C(CCCC2=O)N(c2cccc(C(F)(F)F)c2)C(=O)N1CCCO (centres unmarked) [Example 58.2]
–	–	–	–	< 1	1	–	0	CS(=O)(=O)c1cc(C#N)ccc1[C@@H]1C2=C(CCCC2=O)N(c2cccc(C(F)(F)F)c2)C(=O)N1S(C)(=O)=O [Example 68, (S)-3-(Methylsulfonyl)-4-(3-(methylsulfonyl)-2,5-dioxo-1-(3-(trifluoromethyl)phenyl)-1,2,3,4,5,6,7,8-octahydroquinazolin-4-yl)benzonitrile]

Second part, the compound before the results:

Compound	Papp A→B at 10 nM ([1]; Caco-2 monolayers, apical-to-basal, pH 7.2, 37° C., read-out: PEAB) [×10⁻⁶ cm/s]	Papp B→A at 10 nM ([1]; Caco-2 monolayers, basal-to-apical, pH 7.2, 37° C., read-out: PEBA) [×10⁻⁶ cm/s]	efflux ratio at 10 nM ([1]; pH 7.2, Caco-2, PEBA/PEAB)	solubility at 24 h (Aqueous solubility) [µg/mL]	IC50 (neutrophil elastase [2]) [nM]	EC50 (neutrophil elastase [3]) [nM]	t1/2 INVITRO [4] [h]	CL (predicted human hepatic in vivo blood clearance) [5] [mL/min/kg]
CS(=O)(=O)c1cc(C#N)ccc1[C@@H]1C2=C(CCCC2=O)N(c2cccc(C(F)(F)F)c2)C(=O)N1C(N)=O [Example 75, (S)-4-(4-Cyano-2-(methylsulfonyl)phenyl)-2,5-dioxo-1-(3-(trifluoromethyl)phenyl)-1,2,5,6,7,8-hexahydroquinazoline-3(4H)-carboxamide]	–	–	–	–	< 1	< 1	–	–
CS(=O)(=O)c1cc(C#N)ccc1[C@@H]1C2=C(CCCC2=O)N(c2cccc(C(F)(F)F)c2)C(=O)N1C(=O)NC1CCOCC1 [Example 75.16]	–	–	–	–	–	–	>2.17	0
CN1C(=O)N(c2ccnc(C(F)(F)F)c2)C2=C(C(=O)CCC2)C1c1ccc(C#N)cc1S(C)(=O)=O (centres unmarked) [Example 64, 4-(3-Methyl-2,5-dioxo-1-(2-(trifluoromethyl)pyridin-4-yl)-1,2,3,4,5,6,7,8-octahydroquinazolin-4-yl)-3-(methylsulfonyl)benzonitrile]	–	–	–	–	3.6	1	–	0
CN1C(=O)N(c2cccc(C(F)(F)F)c2)C2=C(C(=O)CCC2)[C@H]1c1ccc(C#N)cc1S(C)(=O)=O [Example 48, (S)-4-(3-Methyl-2,5-dioxo-1-(3-(trifluoromethyl)phenyl)-1,2,3,4,5,6,7,8-octahydroquinazolin-4-yl)-3-(methylsulfonyl)benzonitrile]	–	–	–	–	1	1	–	3
